A short description of this series: Stability in phosphate buffer (pH 7.4, 37 °C) followed by UV–Vis over 24 h. The series is classed as physicochemical. The note with it: 50 µM. As to the method:
The stability of the gold complexes was analyzed by absorption UV spectroscopy. UV–Vis absorption spectra of the complexes were recorded on a Thermo Scientific spectrophotometer (Madrid, Spain). Solutions of C1–6 (5 × 10^−5 M) in 10 mM phosphate buffer (pH = 7.4, 137 mM NaCl) were prepared from 20 mM DMSO solutions of the complexes and thereafter monitored by measuring the electronic spectra over 24 h at 37 °C. To evaluate the stability in the presence of biological reductants, all complexes were pre-solved in a minimum amount of DMSO and then diluted in 10 mM phosphate buffer (pH 7.4, 20 mM NaCl) to a final concentration of 10 µM [41]. All experiments were measure on a quartz microplate. Studies with L-glutathion reduced (GSH) and ascorbic acid (AsA) were conducted by increasing the final concentration of 0 to 50 µM (GSH) and from 0–20 µM for AsA.
Due to the aqueous nature of the bloodstream, studies to understand the behavior of our complexes in such an environment were considered necessary in order to determine the stability in simulated physiological conditions, pH = 7.4 and 37 °C. […] Besides, in the cases of complexes C1–4, a low-intensity broad band was detected (322 nm) (Figure 2 and Figure S3). […]
This is usually associated with the formation of Au(III)-OH bonds, increasing the water solubility and, consequently, the intensity of absorbance. […]

The values below come from paper PMC8698672, “Selective Anticancer and Antimicrobial Metallodrugs Based on Gold(III) Dithiocarbamate Complexes” (Biomedicines, 2021).

On to `Cc1ccc(-c2ccccn2)[c]([Au+][S]C(=S)N(C)C)c1.F[P-](F)(F)(F)(F)F` [Complex C1, [Au(tpy)(dmdtc)] PF6], for which the “Stability in PBS (UV–Vis spectra over time)” value is listed as “absence of new bands around 550 nm”.
As for `Cc1ccc2[c](c1)[Au-]1([S]C(N(Cc3ccccc3)Cc3ccccc3)=[S+]1)[n+]1ccccc1-2.F[P-](F)(F)(F)(F)F` (centres unmarked) [Complex C5, [Au(tpy)(dbdtc)]PF6], the “Stability in PBS (UV–Vis spectra over time)” value is reported as “slight increase in the intensity of 328 nm band”.
